Ventral prostate weight and Seminal vesicles weight data for one molecule are collected here from patent publication US6331642A, “Vitamin D3 analogs” (Hoffmann-La Roche Inc., priority 2000, dated 2001).

One test concerns ventral prostate. Briefly: Antiandrogenic activity in castrated testosterone stimulated hamsters, ventral prostate. It counts as in vivo, male Syrian hamsters. The following applies: testosterone 20 μg s.c. daily, 14 days; vehicle 12 ± 1. On the procedure: (§1) 1,25(OH)2 -16-ene-5,6-trans D3 was evaluated for antiandrogenic activity in castrated, testosterone stimulated male Syrian hamsters.
(§2) […] Both compounds were administered in a vehicle of 0.2 ml sesame oil each. Necropsy was performed on day 15. The prostate and seminal vesicles were removed, blotted and weighed. Data were analyzed for statistical significance using the Student's t-test and are expressed as percent inhibition of stimulated response.

A further test deals with seminal vesicles. As to the kind of experiment: Antiandrogenic activity in castrated testosterone stimulated hamsters, seminal vesicles. Format: in vivo, male Syrian hamsters. Particulars: testosterone 20 μg s.c. daily, 14 days; vehicle 36 ± 3; mg ± SEM. On the procedure: as §1, §2

`CCC(=O)O[C@H]1CC[C@H]2[C@@H]3CCC4=CC(=O)CC[C@]4(C)[C@H]3CC[C@]12C` [Testosterone, testosterone propionate, reference compound]: the Ventral prostate weight with ventral prostate came to 43 ± 5 mg. This molecule displayed a Seminal vesicles weight in the test with seminal vesicles of 105 ± 6 mg.
